Reference: patent US6866858B2, “Method and compositions for attracting mosquitoes” (BioSensory, Inc., priority 2000, dated 2005)
“And” between values parts separate entries of the source, which are not always exact repeats. Equal entries are not always repeated.

Tested on: Aedes taeniorhyncus mosquitoes
Assay: Outdoor screened cage mosquito capture test with CO2 collection jar and attractant
Type: in vivo
Details: for Average captured: average of three replicate tests; for Average captured / Total captured: 250 μL attractant + 500 cc/min CO2, 1000 mosquitoes per test; for Mosquitoes captured: single replicate test, 250 μL attractant on fibrous absorbent in CFG 6 jar with 500 cc/min CO2, 1000 mosquitoes introduced, after several hours; for Total captured: sum of three replicate tests; for Average increase in capture over control: versus CO2-only control (average 334 captured)
Experimental: The following tests were conducted by the United States Department of Agriculture in Florida in a large outdoor screened cage of a size of approximately 30 ft.×60 ft.×20 ft. (9.144×18.288×6.096 meters). Into approximately the center of the base of the cage was placed a CFG 6 Collection Jar of American Biophysics providing 500 cc/min CO2. Also placed in the CFG-6 Jar was a fibrous absorbent into which had been absorbed 250 μL of the test attractant compound. There were then introduced into the cage, from the periphery thereof, 1000 Aedes taeniorhyncus mosquitoes. After a period of several hours the collection jar was examined to determine the number of mosquitoes captured. As controls, similar tests were run with the CF 6 Collection jar without any attractant compound, i.e. with only CO2. Three replicate tests were run with each test attractant compound. The compound 1-octyn-3-ol was employed as the attractant compound of this invention and 1-octenol as an example of a prior art attractant.

C#CC(O)CCCCC (stereo not drawn) [1-octyn-3-ol]
Average captured: Average captured: 735 | more mosquitoes captured than the prior art 1-octen-3-ol attractant (compared with 1-octen-3-ol in the same test): over 71% | Mosquitoes captured: 779 and 599 and 826 | Total captured: 2204 | Average increase in capture over control: Average increase in capture over control: 401

C=CC(O)CCCCC (stereo not drawn) [1-octen-3-ol, reference compound]
Average captured: Average captured: 568 | Mosquitoes captured: 624 and 560 and 520 | Total captured: 1704 | Average increase in capture over control: Average increase in capture over control: 234
